Values quoted from earlier work as cited in PMC7179723, “Self-Assembly of Minimal Peptoid Sequences” (ACS Macro Letters, 2020).

Conditions: assembly requires dilution from an organic solution; literature statement
From the text: Control of self-assembly using sequence-specific polymers such as peptides and their mimics is a powerful approach to generating functional nanomaterials. Very short self-assembling peptides and their mimics (e.g., ≤ 5 residues) are of special interest since they are more easily scalable and they lead to insight into assembly requirements.[1] Their discovery is nontrivial since assembly propensity (e.g., hydrophobic interactions and hydrogen bonding) and favorable solvent (water) interactions must be balanced among just a few residues.[1]−[3] […] Alternatively, lamellar nanostructures were observed when the dipeptoid was precipitated in water from an ACN solution.

Substance: diphenylalanine [FF]
- solubility in water: not directly soluble in water
